This data set relates to primary cortical neurons. Nature of the data set: ELISA of Aβ levels in the treatment media. Format: cell-based, mouse. To be noted: 4 hours incubation, 500 nM, neurobasal FCS- PS- media, versus amount before incubation, n = 9, N = 3. The method, then: Primary cortical neurons (DIV14) were treated with 500 nM of monomeric/unaggregated Aβ variants ([…]β and p-[…]β) in neurobasal, FCS^- PS^- media. SH-SY5Y cells seeded on D1, were treated with Aβ variants (1 μM) on D3 in DMEM/F-12 media without serum and antibiotics. Control treatment included treatment with equal volume of 10 mM NaOH solution used for preparing the Aβ stock solutions, in respective cell culture medium. SH-SY5Y cells, after 16 h of transient expression of the reporter constructs, were treated with different Aβ variants, autophagy modulator substrates and respective controls in DMEM/F-12, FCS^- PS^- media for the mentioned time points. […] Cells were either collected by scraping using a cell-scraper or fixed with 4% PFA-PBS for 15 min at RT, for further immunocytochemistry experiments. Collected treatment media was centrifuged at 1000 g for 5 min, pellet discarded and supernatant frozen at -20°C until further usage. Plates (ThermoFisher Scientific, 44-2404-21) were coated with either […]6) or anti-pAβ antibodies ([…]11 and […]) as capture antibody at RT for 2 h and blocked with 1 mg/ml BSA solution in PBS. […] Multiple readings were recorded for a single well and averaged. In each experiment, each sample was analyzed in technical duplicate/triplicate wells as indicated and average values from an independent experiment are presented (Figures 1E, 3G, SA-D and Table S2).
Background: An ELISA detects its analyte on a solid surface through an enzyme-linked reagent.

One substance from PMC10761119, “Phosphorylation-state dependent intraneuronal sorting of Aβ differentially impairs autophagy and the endo-lysosomal system” (Autophagy, 2023) can be followed below.

As for “non-phosphorylated amyloid-β [npAβ, reference compound]”, the “Levels of Aβ in the treatment media after incubation with primary neurons” value is “significantly decreased”.
